Laboratory results from ChEMBL document CHEMBL1909046, “DrugMatrix in vitro pharmacology data”.

Experiments:
[1] = target: Sigma non-opioid intracellular receptor 1 (Homo sapiens, UniProt Q99720); experiment: DRUGMATRIX: Sigma1 radioligand binding (ligand: [3H] Haloperidol); assay type: cell membranes, Jurkat, Membrane; details: jurkat; Not Active = under 50% inhibition at 10 µM
[2] = target: T1, Angiotensin-converting enzyme (Oryctolagus cuniculus, UniProt P12822); assay type: tissue-based, Lung;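 note: enzymatic inhibition of angiotensin-converting enzyme measured with FAPGG as the substrate; in other assays of this panel Not Active means under 50% inhibition at 10 µM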
T1 sequence (P12822 whole entry): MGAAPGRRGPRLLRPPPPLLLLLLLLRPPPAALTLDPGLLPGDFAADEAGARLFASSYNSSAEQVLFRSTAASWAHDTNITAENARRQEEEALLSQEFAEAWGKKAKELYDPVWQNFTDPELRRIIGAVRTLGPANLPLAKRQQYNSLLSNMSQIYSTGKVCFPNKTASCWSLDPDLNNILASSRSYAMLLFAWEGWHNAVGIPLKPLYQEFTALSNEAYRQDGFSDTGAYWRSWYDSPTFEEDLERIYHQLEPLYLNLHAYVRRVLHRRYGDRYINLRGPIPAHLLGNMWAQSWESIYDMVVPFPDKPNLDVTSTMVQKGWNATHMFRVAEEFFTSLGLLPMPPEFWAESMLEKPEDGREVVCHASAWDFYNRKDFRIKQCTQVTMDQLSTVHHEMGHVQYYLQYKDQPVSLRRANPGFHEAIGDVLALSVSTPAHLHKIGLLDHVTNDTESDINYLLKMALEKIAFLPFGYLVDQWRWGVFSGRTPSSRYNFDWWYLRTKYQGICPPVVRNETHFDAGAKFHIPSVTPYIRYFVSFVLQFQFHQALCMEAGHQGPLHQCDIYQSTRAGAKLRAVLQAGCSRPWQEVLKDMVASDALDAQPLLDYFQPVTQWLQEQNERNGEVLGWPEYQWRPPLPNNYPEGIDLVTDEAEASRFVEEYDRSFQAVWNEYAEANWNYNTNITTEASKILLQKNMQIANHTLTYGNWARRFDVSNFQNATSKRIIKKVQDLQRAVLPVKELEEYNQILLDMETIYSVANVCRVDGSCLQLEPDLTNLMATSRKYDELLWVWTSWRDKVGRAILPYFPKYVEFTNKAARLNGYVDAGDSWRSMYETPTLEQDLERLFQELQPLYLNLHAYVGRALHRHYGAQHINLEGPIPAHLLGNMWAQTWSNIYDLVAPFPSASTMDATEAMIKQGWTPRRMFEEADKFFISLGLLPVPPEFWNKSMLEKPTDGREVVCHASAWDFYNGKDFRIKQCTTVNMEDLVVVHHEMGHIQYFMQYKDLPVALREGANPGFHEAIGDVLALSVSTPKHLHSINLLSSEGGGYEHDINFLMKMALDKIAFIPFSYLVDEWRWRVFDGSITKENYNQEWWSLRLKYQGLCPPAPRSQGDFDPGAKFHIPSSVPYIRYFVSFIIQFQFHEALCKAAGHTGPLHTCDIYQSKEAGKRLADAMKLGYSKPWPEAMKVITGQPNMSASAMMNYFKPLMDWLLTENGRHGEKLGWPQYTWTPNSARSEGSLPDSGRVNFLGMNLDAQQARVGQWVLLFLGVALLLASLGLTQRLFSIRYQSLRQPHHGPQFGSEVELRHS

[3] = target: 5-hydroxytryptamine receptor 4 (Cavia porcellus, UniProt O70528); assay type: cell membranes, Dunkin-Hartley, Striatum, Membrane; note: in other assays of this panel Not Active means under 50% inhibition at 10 µM
Cytochrome P450 2C19 = Cytochrome P450 2C19 (Homo sapiens, UniProt P33261); details: bti-tn-5b1-4; note: in other assays of this panel Not Active means under 50% inhibition at 10 µM
[4] = target: 5-hydroxytryptamine receptor 6 (Homo sapiens, UniProt P50406); assay type: cell membranes, HeLa, Membrane; details: hela; note: in other assays of this panel Not Active means under 50% inhibition at 10 µM
[5] = DRUGMATRIX: Sigma2 radioligand binding (ligand: [3H] Ifenprodil); assay type: cell membranes, Rattus norvegicus, Wistar, Brain, Membrane; details: Not Active = under 50% inhibition at 10 µM

Chain of 5-hydroxytryptamine receptor 4 (O70528 whole entry): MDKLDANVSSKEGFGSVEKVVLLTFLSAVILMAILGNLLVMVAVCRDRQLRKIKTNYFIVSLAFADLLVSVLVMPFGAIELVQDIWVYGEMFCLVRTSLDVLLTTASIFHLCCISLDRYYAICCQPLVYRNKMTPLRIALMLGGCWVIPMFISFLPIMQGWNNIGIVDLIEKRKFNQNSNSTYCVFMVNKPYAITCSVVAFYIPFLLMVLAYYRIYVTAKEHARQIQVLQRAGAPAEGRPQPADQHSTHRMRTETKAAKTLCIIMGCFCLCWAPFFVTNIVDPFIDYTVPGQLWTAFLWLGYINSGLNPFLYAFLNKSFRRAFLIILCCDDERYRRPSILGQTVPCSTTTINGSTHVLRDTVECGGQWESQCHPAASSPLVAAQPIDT
Chain of Sigma non-opioid intracellular receptor 1 (Q99720 whole entry): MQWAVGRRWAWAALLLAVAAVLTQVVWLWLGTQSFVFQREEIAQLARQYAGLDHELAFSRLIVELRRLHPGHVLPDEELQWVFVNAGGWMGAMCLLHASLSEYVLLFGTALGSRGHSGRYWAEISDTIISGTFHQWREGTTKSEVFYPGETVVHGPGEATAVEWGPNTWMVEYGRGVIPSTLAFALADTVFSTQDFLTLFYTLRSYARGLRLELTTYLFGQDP
Chain of Cytochrome P450 2C19 (P33261 whole entry): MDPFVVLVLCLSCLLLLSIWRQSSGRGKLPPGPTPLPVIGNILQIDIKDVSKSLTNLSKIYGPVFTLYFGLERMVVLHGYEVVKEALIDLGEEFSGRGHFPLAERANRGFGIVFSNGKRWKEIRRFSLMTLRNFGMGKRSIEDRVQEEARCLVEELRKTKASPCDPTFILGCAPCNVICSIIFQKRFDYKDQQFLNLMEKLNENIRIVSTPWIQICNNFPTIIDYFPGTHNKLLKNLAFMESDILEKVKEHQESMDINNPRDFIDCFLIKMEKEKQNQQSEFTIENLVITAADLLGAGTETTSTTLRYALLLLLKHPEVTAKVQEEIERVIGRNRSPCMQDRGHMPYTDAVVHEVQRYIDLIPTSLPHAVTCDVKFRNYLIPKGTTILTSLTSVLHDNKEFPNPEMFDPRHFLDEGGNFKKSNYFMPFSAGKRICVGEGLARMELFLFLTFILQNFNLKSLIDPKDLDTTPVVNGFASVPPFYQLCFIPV
Chain of 5-hydroxytryptamine receptor 6 (P50406 whole entry): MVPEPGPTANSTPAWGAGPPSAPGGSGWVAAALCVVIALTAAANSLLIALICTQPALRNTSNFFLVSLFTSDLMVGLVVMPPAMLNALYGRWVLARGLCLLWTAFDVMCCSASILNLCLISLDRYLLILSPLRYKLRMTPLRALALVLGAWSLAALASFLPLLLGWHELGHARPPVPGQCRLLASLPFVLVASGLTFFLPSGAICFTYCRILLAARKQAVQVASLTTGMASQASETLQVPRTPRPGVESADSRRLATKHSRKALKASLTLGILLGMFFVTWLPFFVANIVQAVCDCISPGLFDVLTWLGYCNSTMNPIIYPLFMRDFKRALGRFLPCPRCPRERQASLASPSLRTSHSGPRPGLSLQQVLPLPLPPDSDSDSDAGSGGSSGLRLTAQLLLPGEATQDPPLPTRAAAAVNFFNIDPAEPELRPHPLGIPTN

Nn1nnc2ccccc21
Not Active: IC50 [1] | IC50 [2] | IC50 [3] | IC50 (Cytochrome P450 2C19) | Ki (Cytochrome P450 2C19) | IC50 [4] | IC50 [5] | Ki [5]

CC[C@]1(O)CC[C@H]2[C@@H]3CCC4=CCCC[C@@H]4[C@H]3CC[C@@]21C
Not Active: IC50 [1] | IC50 [2] | IC50 [3] | IC50 [4] | IC50 [5] | Ki [5]

N[C@@H](Cc1ccc(F)cc1)C(=O)O
Not Active: IC50 [1] | IC50 [2] | IC50 [3] | IC50 [4] | IC50 [5] | Ki [5]

CCOC(=O)[C@H](CCc1ccccc1)N[C@@H](C)C(=O)N1Cc2ccccc2C[C@H]1C(=O)O
Not Active: IC50 [1] | IC50 [3] | IC50 (Cytochrome P450 2C19) | Ki (Cytochrome P450 2C19) | IC50 [4] | IC50 [5] | Ki [5]

O=C(c1ccccc1Cl)N1CCC(Cc2ccccc2)CC1
Not Active: IC50 [1] | IC50 [2] | IC50 [3] | IC50 [4] | IC50 [5] | Ki [5]

CCOC(=O)[C@H](CCc1ccccc1)N[C@@H](C)C(=O)N1CCC[C@H]1C(=O)O
Not Active: IC50 [1] | IC50 [3] | IC50 (Cytochrome P450 2C19) | Ki (Cytochrome P450 2C19) | IC50 [4] | IC50 [5] | Ki [5]

Clc1cc2c(cc1Cl)Oc1cc(Cl)c(Cl)cc1O2 [2,3,7,8-TETRACHLORODIBENZO-P-DIOXIN]
Not Active: IC50 [1] | IC50 [2] | IC50 [3] | IC50 (Cytochrome P450 2C19) | Ki (Cytochrome P450 2C19) | IC50 [4] | IC50 [5] | Ki [5]

C=C1/C(=C\C=C2/CCC[C@]3(C)[C@@H]([C@H](C)CCCC(C)C)CC[C@@H]23)C[C@@H](O)C[C@@H]1O [ALFACALCIDOL]
Not Active: IC50 [1] | IC50 [2] | IC50 [3] | IC50 (Cytochrome P450 2C19) | Ki (Cytochrome P450 2C19) | IC50 [4] | IC50 [5] | Ki [5]

CCCCCC[C@H]1C(=O)O[C@H](C)[C@H](NC(=O)c2cccc(NC=O)c2O)C(=O)O[C@@H](C)[C@@H]1OC(=O)CC(C)C [ANTIMYCIN A]
Not Active: IC50 [1] | IC50 [2] | IC50 [3] | IC50 (Cytochrome P450 2C19) | Ki (Cytochrome P450 2C19) | IC50 [4] | IC50 [5] | Ki [5]

C[C@@H]1CC[C@H]2[C@@H](C)C(=O)O[C@@H]3O[C@@]4(C)CC[C@@H]1[C@]32OO4 [ARTEMISININ]
Not Active: IC50 [1] | IC50 [2] | IC50 [3] | IC50 [4] | IC50 [5] | Ki [5]

CO[C@H]1[C@@H](O)[C@H](N)[C@@H](O[C@H]2O[C@H]([C@H](C)N)CC[C@H]2N)[C@H](O)[C@@H]1N(C)C(=O)CN [ASTROMICIN]
Not Active: IC50 [1] | IC50 [2] | IC50 [3] | IC50 (Cytochrome P450 2C19) | Ki (Cytochrome P450 2C19) | IC50 [4] | IC50 [5] | Ki [5]

[N-]=[N+]=CC(=O)OC[C@H](N)C(=O)O [AZASERINE]
Not Active: IC50 [1] | IC50 [2] | IC50 [3] | IC50 (Cytochrome P450 2C19) | Ki (Cytochrome P450 2C19) | IC50 [4] | IC50 [5] | Ki [5]

CC[C@H]1OC(=O)[C@H](C)[C@@H](O[C@H]2C[C@@](C)(OC)[C@@H](O)[C@H](C)O2)[C@H](C)[C@@H](O[C@@H]2O[C@H](C)C[C@H](N(C)C)[C@H]2O)[C@](C)(O)C[C@@H](C)CN(C)[C@H](C)[C@@H](O)[C@]1(C)O [AZITHROMYCIN]
Not Active: IC50 [1] | IC50 [2] | IC50 [3] | IC50 (Cytochrome P450 2C19) | Ki (Cytochrome P450 2C19) | IC50 [4] | IC50 [5] | Ki [5]
